Source: BindingDB's records for doi:10.1038/nchembio.2334 (University of North Carolina, 2017)

Assays:
[1] = biological target: T1, Mas-related G-protein coupled receptor member X2 (Homo sapiens, UniProt Q96LB1); assay: Intracellular Calcium Mobilization Assay; settings: pH 7.4; 30 °C
T1 sequence (Q96LB1 whole entry): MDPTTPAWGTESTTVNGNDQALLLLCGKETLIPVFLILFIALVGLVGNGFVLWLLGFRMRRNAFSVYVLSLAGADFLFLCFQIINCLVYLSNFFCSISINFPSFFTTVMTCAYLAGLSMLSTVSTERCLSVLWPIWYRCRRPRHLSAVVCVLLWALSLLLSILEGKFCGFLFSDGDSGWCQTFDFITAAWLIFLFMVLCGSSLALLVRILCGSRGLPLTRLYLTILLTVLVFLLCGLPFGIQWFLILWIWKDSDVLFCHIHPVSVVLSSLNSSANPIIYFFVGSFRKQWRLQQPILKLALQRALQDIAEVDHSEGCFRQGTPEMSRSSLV
Procedure: MRGPRX2 stable cells were maintained in DMEM containing 10% FBS, 100 μg/ml hygromycin B, and 15 μg/ml blasticidin. For the calcium mobilization assay, cells were plated into glass bottomed, poly-L-lysine coated, black 384 well plates at a density of 20,000 cells/well in medium containing 1% dialyzed FBS, 1 μg/ml tetracycline, 100 IU/ml penicillin and 100 μg/ml streptomycin and incubated 24 h. Following tetracycline induction, medium was removed and cells were loaded with 20 μl/well of 1× FLIPR Calcium dye (Molecular Devices) and 2.5 mM probenic acid, for 1 h in a humidified environment at 37 °C with 5% CO2. For mast cell calcium experiments, cells were seeded at a density of 50,000 cells/well in Tyrode's buffer containing 1× calcium dye and incubated for 1 h before treatment and analysis. After dye loading, baseline was measured for 10 s before drug treatment, and then cells were treated with 10 μl of 3× concentrated drug in drug buffer (1× HBSS with 20 mM HEPES and 2.5 mM probenic acid, pH 7.4) in 16 point concentration response curves from 100 μM to 0.003 nM.

[2] = biological target: T1, Mas-related G-protein coupled receptor member X2; assay: PRESTO-Tango Assay; settings: pH 7.4; 30 °C
Procedure: HTLA cells (HEK-T cells stably expressing a β-arrestin2-TEV fusion protein and a tTa-dependent luciferase reporter) were maintained in DMEM (Corning) containing 10% FBS, 2 μg/ml puromycin and 100 μg/ml hygromycin B in a humidified atmosphere at 37 °C with 5% CO2. In brief, cells were plated to 50% confluency and transfected with a codon-optimized MRGPRX-Tango construct using the calcium phosphate method53. The next day, transfected cells were transferred to glass-bottomed, poly-L-lysine-coated white 384-well plates at a density of 20,000 cells/well. The following day, cells were treated with 10 μM concentrations of small molecules (in quadruplicate) diluted in drug buffer (1× HBSS with 20 mM HEPES and 0.3% bovine serum albumin, pH 7.4) and incubated for 18-24 h. After drug incubation, medium was removed and 20 μl of Bright-Glo (Promega; diluted 20-fold) was added to each well and incubated 15 min at room temperature.

| Structure (SMILES) | EC50 [1] | EC50 [2] |
| --- | --- | --- |
| CN1CC[C@@]23CCCC[C@H]2[C@@H]1Cc1ccc(O)cc13 [Levorphanol] | 13 µM | 22 µM |
| CC[C@H](C)[C@H](NC(=O)[C@H](CCCNC(=N)N)NC(=O)[C@H](CCCNC(=N)N)NC(=O)[C@H](CC(C)C)NC(=O)[C@H](Cc1ccccc1)NC(=O)CNC(=O)CNC(=O)[C@@H](N)Cc1ccc(O)cc1)C(=O)N[C@@H](CCCNC(=N)N)C(=O)N1CCC[C@H]1C(=O)N[C@@H](CCCCN)C(=O)N[C@@H](CC(C)C)C(=O)N[C@@H](CCCCN)C(=O)N[C@@H](Cc1c[nH]c2ccccc12)C(=O)N[C@@H](CC(=O)O)C(=O)N[C@@H](CC(N)=O)C(=O)N[C@@H](CCC(N)=O)C(=O)O [Dynorphin A (1-17)] | 2.3 µM | 21 µM |
| COc1ccc2c3c1O[C@H]1[C@@H](OC(C)=O)C=C[C@H]4[C@@H](C2)N(C)CC[C@@]341 [6-Acetylcodeine] | 25 µM | 19 µM |
| COC1=CC=C2[C@H]3Cc4ccc(OC)c5c4[C@@]2(CCN3C)[C@H]1O5 [Thebaine] | 76 µM | 11 µM |
| CCC(=O)O[C@](Cc1ccccc1)(c1ccccc1)[C@H](C)CN(C)C [PROPOXYPHENE] | 32 µM | 15 µM |
| CN1CC[C@]23CCCC[C@@H]2[C@H]1Cc1ccc(O)cc13 [Dextrorphan] | 3.9 µM | 4.2 µM |
| C[C@@H]1[C@@H]2Cc3ccc(O)cc3[C@@]1(C)CCN2C [(+)-Metazocine] | 9.3 µM | 7.2 µM |
| CC(=O)O[C@H]1C=C[C@H]2[C@H]3Cc4ccc(O)c5c4[C@@]2(CCN3C)[C@H]1O5 [6-Acetylmorphine] | 21 µM | 12 µM |
| CC(C)C[C@H](NC(=O)[C@H](Cc1ccccc1)NC(=O)CNC(=O)CNC(=O)[C@@H](N)Cc1ccc(O)cc1)C(=O)N[C@@H](CCCNC(=N)N)C(=O)N[C@@H](CCCNC(=N)N)C(=O)N[C@@H](CCC(N)=O)C(=O)N[C@@H](Cc1ccccc1)C(=O)N[C@@H](CCCCN)C(=O)N[C@H](C(=O)N[C@H](C(=O)N[C@H](C(=O)O)[C@H](C)O)C(C)C)C(C)C [Dynorphin B (1-13)] | 6.5 µM | 33 µM |
| C[C@H]1C2Cc3ccc(O)cc3[C@@]1(C)CCN2 [(6S,11R)-6,11-Dimethyl-1,2,3,4,5,6-hexahydro-2,6-methano-benzo[d]azocin-8-ol] | 13 µM | 14 µM |
| CN1CC[C@@]2(c3cccc(O)c3)Cc3nc4ccccc4cc3C[C@@H]2C1 [(+)-TAN-67] | 0.29 µM | 0.43 µM |
| C[C@@H]1C2Cc3ccc(O)cc3[C@]1(C)CCN2 [(6R,11S)-6,11-Dimethyl-1,2,3,4,5,6-hexahydro-2,6-methano-benzo[d]azocin-8-ol] | – | 50 µM |
| COc1ccc2c(c1)[C@@]13CCCC[C@@H]1[C@@H](C2)N(C)CC3 [Dextromethorphan] | 5.9 µM | 3.2 µM |
